Test results taken from article PMC10791743, “Selective CK1α degraders exert antiproliferative activity against a broad range of human cancer cell lines” (Nature Communications, 2024).

Experiments:
102 cell lines [1] = test: Oncolines viability of 120 reference anti-cancer agents; type: cell-based, human
102 cell lines [2] = details: cited from earlier work
102 cell lines [3] = test: Oncolines viability of 120 reference anti-cancer agents; type: cell-based, human; remark: listed apart in the source
Procedure: Pearson correlations were calculated between SJ3149 ^10log IC50 values and those of the 120 reference agents, to determine the similarity of compound IC50 fingerprints.

COc1ccc(C2=N[C@@H](c3ccc(Cl)cc3)[C@@H](c3ccc(Cl)cc3)N2C(=O)N2CCNC(=O)C2)c(OC(C)C)c1 [Nutlin-3a]
IC50 (102 cell lines [1]; FaDu, Hypopharyngeal squamous cell carcinoma): > 31.6 µM | IC50 (102 cell lines [1]; HCT 116, Colon carcinoma): 4.55 µM | IC50 (102 cell lines [1]; HCT-15, Colon adenocarcinoma): > 31.6 µM | IC50 (102 cell lines [1]; HL-60, Adult acute myeloid leukemia): > 31.6 µM | IC50 (102 cell lines [1]; HT-1080, Fibrosarcoma): 2.06 µM | IC50 (102 cell lines [1]; HT, Diffuse large B-cell lymphoma): > 31.6 µM | IC50 (102 cell lines [1]; Hs 578T, Invasive ductal carcinoma): > 31.6 µM | IC50 (102 cell lines [1]; Hs 746T, Gastric adenocarcinoma): > 31.6 µM | IC50 (102 cell lines [1]; Hs 766T, Pancreatic adenocarcinoma): > 31.6 µM | IC50 (102 cell lines [1]; HuTu 80, Duodenal adenocarcinoma): 3.91 µM | IC50 (102 cell lines [1]; J82, Bladder carcinoma): > 31.6 µM | IC50 (102 cell lines [1]; Jurkat E6.1, Childhood T acute lymphoblastic leukemia): > 31.6 µM | IC50 (102 cell lines [1]; K-562, Chronic myelogenous leukemia): > 31.6 µM | IC50 (102 cell lines [1]; KATO III, Signet ring cell gastric adenocarcinoma): 29.3 µM | IC50 (102 cell lines [1]; KLE, Endometrial adenocarcinoma): > 31.6 µM | IC50 (102 cell lines [1]; KU812, Chronic myelogenous leukemia): > 31.6 µM | IC50 (102 cell lines [1]; LNCaP FGC, Prostate carcinoma): 10.9 µM | IC50 (102 cell lines [1]; LS 174T, Colon adenocarcinoma): 3.7 µM | IC50 (102 cell lines [1]; LS411N, Cecum adenocarcinoma): > 31.6 µM | IC50 (102 cell lines [1]; LoVo, Colon adenocarcinoma): 10.2 µM | IC50 (102 cell lines [1]; MCF7, Invasive ductal carcinoma): 11.4 µM | IC50 (102 cell lines [1]; MG-63, Osteosarcoma): > 31.6 µM | IC50 (102 cell lines [1]; MIA PaCa-2, Pancreatic ductal adenocarcinoma): > 31.6 µM | IC50 (102 cell lines [1]; MeWo, Melanoma): > 31.6 µM | IC50 (102 cell lines [1]; NCCIT, Testicular embryonal carcinoma): > 31.6 µM | IC50 (102 cell lines [1]; NCI-H82, Small cell lung carcinoma): > 31.6 µM | IC50 (102 cell lines [1]; NCI-H661, Large cell lung carcinoma): > 31.6 µM | IC50 (102 cell lines [1]; OVCAR-3, High grade ovarian serous adenocarcinoma, TP53 Mutant): > 31.6 µM | IC50 (102 cell lines [1]; PA-1, Ovarian mixed germ cell tumor, TP53 Wild-type): 2.31 µM | IC50 (102 cell lines [1]; PC-3, Prostate carcinoma, TP53 Mutant): > 31.6 µM | IC50 (102 cell lines [1]; PFSK-1, Primitive neuroectodermal tumor, TP53 Mutant): > 31.6 µM | IC50 (102 cell lines [1]; RD, Embryonal rhabdomyosarcoma, TP53 Mutant): > 31.6 µM | IC50 (102 cell lines [1]; RKO, Colon carcinoma, TP53 Wild-type): 15.7 µM | IC50 (102 cell lines [1]; RL95-2, Endometrial adenosquamous carcinoma, TP53 Mutant): 24.6 µM | IC50 (102 cell lines [1]; RPMI-7951, Melanoma, TP53 Mutant): > 31.6 µM | IC50 (102 cell lines [1]; RS4-11, Adult B acute lymphoblastic leukemia, TP53 Wild-type): 4.71 µM | IC50 (102 cell lines [1]; RT4, Bladder carcinoma, TP53 Wild-type): 7.03 µM | IC50 (102 cell lines [1]; SHP-77, Small cell lung carcinoma, TP53 Mutant): 27.3 µM | IC50 (102 cell lines [1]; SJCRH30, Alveolar rhabdomyosarcoma, TP53 Mutant): > 31.6 µM | IC50 (102 cell lines [1]; SK-N-AS, Neuroblastoma, TP53 Wild-type): > 31.6 µM | IC50 (102 cell lines [1]; SK-N-FI, Neuroblastoma, TP53 Mutant): > 31.6 µM | IC50 (102 cell lines [1]; SNU-5, Gastric carcinoma, TP53 Mutant): > 31.6 µM | IC50 (102 cell lines [1]; SU-DHL-1, Anaplastic large cell lymphoma, TP53 Mutant): 30.7 µM | IC50 (102 cell lines [1]; SU-DHL-6, Diffuse large B-cell lymphoma, TP53 Mutant): 23.4 µM | IC50 (102 cell lines [1]; SUP-T1, Childhood T lymphoblastic lymphoma, TP53 Mutant): > 31.6 µM | IC50 (102 cell lines [1]; SW48, Colon adenocarcinoma, TP53 Wild-type): 7.63 µM | IC50 (102 cell lines [1]; SW480, Colon adenocarcinoma, TP53 Mutant): > 31.6 µM | IC50 (102 cell lines [1]; SW620, Colon adenocarcinoma, TP53 Mutant): 13.6 µM | IC50 (102 cell lines [1]; SW626, Colon adenocarcinoma, TP53 Mutant): > 31.6 µM | IC50 (102 cell lines [1]; SW837, Rectal adenocarcinoma, TP53 Mutant): > 31.6 µM | IC50 (102 cell lines [1]; SW872, Liposarcoma, TP53 Mutant): > 31.6 µM | IC50 (102 cell lines [1]; SW900, Squamous cell lung carcinoma, TP53 Mutant): > 31.6 µM | IC50 (102 cell lines [1]; SW982, Biphasic synovial sarcoma, TP53 Wild-type): 3.11 µM | IC50 (102 cell lines [1]; T24, Bladder carcinoma, TP53 Mutant): > 31.6 µM | IC50 (102 cell lines [1]; T98G, Glioblastoma, TP53 Mutant): > 31.6 µM | IC50 (102 cell lines [1]; cell line 769-P, Renal cell carcinoma, TP53 Wild-type): 5.52 µM | IC50 (102 cell lines [1]; cell line 786-O, Renal cell carcinoma, TP53 Mutant): 13.4 µM | IC50 (102 cell lines [1]; cell line 5637, Bladder carcinoma, TP53 Mutant): > 31.6 µM | IC50 (102 cell lines [1]; cell line A375, Amelanotic melanoma, TP53 Wild-type): 6.9 µM | IC50 (102 cell lines [1]; cell line A388, Squamous cell carcinoma, TP53 Mutant): > 31.6 µM | IC50 (102 cell lines [1]; cell line A-172, Glioblastoma, TP53 Wild-type): 11.5 µM | IC50 (102 cell lines [1]; cell line A-204, Embryonal rhabdomyosarcoma, TP53 Wild-type): 3.06 µM | IC50 (102 cell lines [1]; cell line A-427, Lung adenocarcinoma, TP53 Wild-type): 5.36 µM | IC50 (102 cell lines [1]; cell line A-498, Renal cell carcinoma, TP53 Wild-type): 5.59 µM | IC50 (102 cell lines [1]; cell line A-549, Lung adenocarcinoma, TP53 Wild-type): 6.56 µM | IC50 (102 cell lines [1]; cell line A-704, Renal cell carcinoma, TP53 Mutant): > 31.6 µM | IC50 (102 cell lines [1]; cell line AN3 CA, Endometrial adenocarcinoma, TP53 Mutant): > 31.6 µM | IC50 (102 cell lines [1]; cell line AU-565, Breast adenocarcinoma, TP53 Mutant): > 31.6 µM | IC50 (102 cell lines [1]; cell line BT-20, Invasive ductal carcinoma, TP53 Mutant): > 31.6 µM | IC50 (102 cell lines [1]; cell line BT-549, Invasive ductal carcinoma, TP53 Mutant): > 31.6 µM | IC50 (102 cell lines [1]; cell line BxPC-3, Pancreatic ductal adenocarcinoma, TP53 Mutant): > 31.6 µM | IC50 (102 cell lines [1]; cell line C-33 A, Cervical squamous cell carcinoma, TP53 Mutant): > 31.6 µM | IC50 (102 cell lines [1]; cell line CAL 27, Tongue squamous cell carcinoma, TP53 Mutant): > 31.6 µM | IC50 (102 cell lines [1]; cell line CCF-STTG1, Astrocytoma, TP53 Wild-type): 7.17 µM | IC50 (102 cell lines [1]; cell line CCRF-CEM, Childhood T acute lymphoblastic leukemia, TP53 Mutant): > 31.6 µM | IC50 (102 cell lines [1]; cell line COLO 205, Colon adenocarcinoma, TP53 Mutant): > 31.6 µM | IC50 (102 cell lines [1]; cell line COLO 829, Cutaneous melanoma, TP53 Wild-type): 15.6 µM | IC50 (102 cell lines [1]; cell line DB, Diffuse large B-cell lymphoma, TP53 Mutant): 28.6 µM | IC50 (102 cell lines [1]; cell line DLD-1, Colon adenocarcinoma, TP53 Mutant): > 31.6 µM | IC50 (102 cell lines [1]; cell line DU 145, Prostate carcinoma, TP53 Mutant): > 31.6 µM | IC50 (102 cell lines [1]; cell line DU4475, Breast carcinoma, TP53 Wild-type): 4.62 µM | IC50 (102 cell lines [1]; cell line DoTc2 4510, Cervical carcinoma, TP53 Wild-type): > 31.6 µM | IC50 (102 cell lines [1]; cell line ES-2, Ovarian clear cell adenocarcinoma, TP53 Mutant): > 31.6 µM | IC50 (102 cell lines [1]; cell line TCCSUP (Bladder carcinoma), TP53 Mutant): > 31.6 µM | IC50 (102 cell lines [1]; cell line THP-1 (Childhood acute monocytic leukemia), TP53 Mutant): > 31.6 µM | IC50 (102 cell lines [1]; cell line U-87 MG (Glioblastoma), TP53 Wild-type): 4.37 µM | IC50 (102 cell lines [1]; cell line U-118 MG (Astrocytoma), TP53 Mutant): > 31.6 µM | IC50 (102 cell lines [1]; cell line VA-ES-BJ (Epithelioid sarcoma), TP53 Wild-type): 1.73 µM | Potency in responsive cell lines (102 cell lines [2]): micromolar potency | IC50 (102 cell lines [3]; G-361, Melanoma): 2.53 µM | IC50 (102 cell lines [3]; JAR, Gestational choriocarcinoma): 7.25 µM | IC50 (102 cell lines [3]; KG-1, Adult acute myeloid leukemia): > 31.6 µM | IC50 (102 cell lines [3]; MOLT-4, Adult T acute lymphoblastic leukemia): 2.87 µM | IC50 (102 cell lines [3]; NCI-H460, Large cell lung carcinoma): 4.2 µM | IC50 (102 cell lines [3]; RL, Diffuse large B-cell lymphoma, TP53 Mutant): > 31.6 µM | IC50 (102 cell lines [3]; SNU-C2B, Cecum adenocarcinoma, TP53 Mutant): > 31.6 µM | IC50 (102 cell lines [3]; SR, Anaplastic large cell lymphoma, TP53 Mutant): 2.04 µM | IC50 (102 cell lines [3]; SW948, Colon adenocarcinoma, TP53 Mutant): > 31.6 µM | IC50 (102 cell lines [3]; cell line ACHN, Papillary renal cell carcinoma, TP53 Wild-type): 3.3 µM | IC50 (102 cell lines [3]; cell line AsPC-1, Pancreatic ductal adenocarcinoma, TP53 Mutant): > 31.6 µM | IC50 (102 cell lines [3]; cell line Daoy, Medulloblastoma, TP53 Mutant): > 31.6 µM | IC50 (102 cell lines [3]; cell line TT (Hereditary thyroid gland medullary carcinoma), TP53 Wild-type): 7.4 µM | IC50 (102 cell lines [3]; cell line U-2 OS (Osteosarcoma), TP53 Wild-type): 13.3 µM
